Assay results from EP0185623A1, “Milbemycin derivatives for combating insects and parasites” (CIBA-GEIGY AG, priority 1984, dated 1986).

How the values were obtained:
[1] = tested on: Boophilus microplus (Biarra-Stamm); test: B-4 acaricidal action, injection into engorged female ticks; format: in vivo; conditions: dose per tick at which 9 of 10 females lay non-hatching eggs after 30 days
Procedure: B-4. Akarizide Wirkung gegen Boophilus microplus (Biarra-Stamm
Auf einer PVC-Platte wird waagrecht ein Klebstreifen so befestigt, das darauf 10 mit Blut vollgesogene Zecken-Weibchen von Boophilus microplus (Biarra-Stamm) nebeneinander in einer Reihe mit dem Rücken aufgeklebt werden können. Jeder Zecke wird mit einer Injektionsnadel 1 µl einer Flüssigkeit injiziert, die eine 1:1-Mischung von Polyethylenglykol und Aceton darstellt und in der als bestimmte Wirkstoffmenge […] pro Zecke gelöst ist. Kontrolltiere erhalten eine wirkstofffreie Injektion. Nach der Behandlung werden die Tiere unter Normalbedingungen in einem Insektarium bei ca. 28°C und 80 % relativer Luftfeuchtigkeit gehalten, bis die Eiablage erfolgt und die Larven aus den Eiern der Kontrolltiere geschlüpft sind.
Die Aktivität einer geprüften Substanz wird mit der IR90 bestimmt, d.h. es wird jene Wirkstoffdosis ermittelt, bei der noch nach 30 Tagen 9 von 10 Zeckenweibchen (= 90 %) Eier ablegen, die nicht schlupffähig sind.

[2] = tested on: L1-Larven von Lucilia sericata; test: B-3 action against L1 larvae in larval culture medium; format: in vivo; conditions: 100 ppm, after 4 days
Procedure: B-3. Wirkung gegen L1-Larven von Lucilia sericata
1 ml einer wässrigen Suspension der zu prüfenden Aktivsubstanz wird so mit 3 ml eines speziellen Larvenzuchtmediums bei ca. 50°C vermischt, dass ein Homogenisat von wahlweise 250 ppm oder 125 ppm Wirkstoffgehalt entsteht. In jede Reagenzglas-Probe werden ca. 30 Lucilia-Larven (L1) eingesetzt. Nach 4 Tagen wird die Mortalitätsrate bestimmt. Die Verbindungen der Formel 1 erzielten mit 250 ppm, die Verbindungen Nr. 1.1, 1.3, 1.15, 1.22, 1.27, 1.35, 1.37, 1.38 und 1.43 bereits bei 100 ppm eine Wirkung von 100 %.

[3] = tested on: Haemonchus contortus und Trychostrongylus colubriformis; test: B-5 test on sheep infected with nematodes, worm egg count in faeces; format: in vivo, Schafe; conditions: single dose
Procedure: B-5. Versuch an mit Nematoden (Haemonchus concortus und Trichostrongylus colubriformis) infizierten Schafen
Der Wirkstoff wird als Suspension formuliert mit einer Magensonde oder durch Injektion in den Pansen eines Schafes gegeben, das mit Haemonchus contortus und Trychostrongylus colubriformis künstlich infiziert worden ist. Pro Dosis werden 1 bis 3 Tiere verwendet. Jedes Schaf wird nur einmal mit einer einzigen Dosis behandelt, und zwar wahlweise mit 2 mg oder 1 mg/kg Körpergewicht. Die Evaluierung erfolgt durch Vergleich der Anzahl der vor und nach Behandlung im Kot der Schafe ausgeschiedenen Wurmeier.
Gleichzeitig und gleichartig infizierte aber unbehandelte Schafe dienen als Kontrolle. Schafe, die mit einer der Verbindungen der Formel I bei 1 mg/kg behandelt wurden, zeigten im Vergleich zu unbehandelten, aber infizierten Vergleichsgruppen keinen Nematodenbefall (= komplette Reduktion der Wurmeier im Kot). […] Schafe, die mit 0,1 mg/kg Köpergewicht der Verbindung Nr. 1.1 (A) und der Verbindung Nr. 1.15 (B) behandelt wurden, zeigten im Vergleich zur Kontrolle eine 77%ige (A) und eine 97Xige (B) Wirkung, während 5-0-(2,3,4,6-Tetra-0-acetyl-1-0-glucanopyranosyl)-milbemycin A3 bei dieser Konzentration unwirksam war.

| Substance | IR90 [1] | Wirkung (Mortalitätsrate) [2] [%] | Wirkung im Vergleich zur Kontrolle ([3]; 0,1 mg/kg Körpergewicht) | Wirkung (Reduktion der Wurmeier im Kot) ([3]; 2 mg/kg) |
| --- | --- | --- | --- | --- |
| 5-0-(1-0-Galactopyranosyl)-milbemycin D [1.38] | 0,5 µg | 100 |  |  |
| 5-0-(2,3,4,6-Tetra-0-acetyl-1-0-glucanopyranosyl)-milbemycin A3 [Tetraacetylglucopyranosyl-milbemycin A3] |  |  | unwirksam | annähernd wirkungslos |
